Reference: patent US20230399661A1, “SHUTTLE AGENT PEPTIDES OF MINIMAL LENGTH AND VARIANTS THEREOF ADAPTED FOR TRANSDUCTION OF CAS9-RNP AND OTHER NUCLEOPROTEIN CARGOS” (priority 2020, published 2023)

System: HeLa cells
Assay: GFP-NLS transduction in the presence or absence of Cas9-RNP complex, flow cytometry
Assay type: cell-based, Human
Parameters: GFP transduction efficiency: concentration or dose not given beside the values
Conditions: for resistance/sensitivity of GFP transduction to inhibition by Cas9-RNP: presence vs absence of Cas9-RNP
Procedure: HeLa cells were plated (20 000 cells/well) in a 96 well-plate the day prior to the experiment in DMEM containing 10% FBS. A mix was prepared containing a synthetic peptide shuttle agent (10-30 μM), the GFP-NLS (10 μM) with or without a Cas9-NLS recombinant protein (2.5 μM) complexed with a crRNA/tracrRNA (2 μM) targeting the beta-2 microglobulin (B2M) gene and completed to 50 μL with PBS. Cells were washed once with PBS and the shuttle/GFP-NLS/Cas9-RNP mix was added to the cells and incubated for one minute. Then 100 μL DMEM containing 10% FBS was added to the mix. Cells were then immediately washed once with PBS and incubated in DMEM containing 10% FBS for two hours. Cells were the analyzed by flow cytometry.
To better understand the inhibitory effect of Cas9-RNP on shuttle agent transduction activity, HeLa cells were incubated with different peptides/shuttle agents and GFP cargo, in the presence or absence of Cas9-RNP, and delivery of GFP was assessed by flow cytometry, as described in Example 1. […] For some shuttle agents, the effect was particularly striking. For example, the GFP transduction efficiency for FSD268 decreased from 92% to 29%, the GFP transduction efficiency for FSD250 decreased from 83% to 13%, the GFP transduction efficiency for FSD10 decreased from 76% to 22%, and the GFP transduction efficiency for FSD395 decreased from 91% to 17%. […] Structure-activity relationships were explored further by repeating the above transduction experiments with shuttle agent variants sharing the same “core” amphipathic cationic alpha helical region as FSD10-15 (FIG. 4A), CM18 (FIG. 4B), and FSD356 (FIG. 4C).

Row | Substance | resistance/sensitivity of GFP transduction to inhibition by Cas9-RNP | further results
1 | FSD440: CM18 with flanking glycine/serine-rich residues (GGSGGGSKWKLFKKIGAVLKVLTTGGGSGGGS; FSD440) | retained the peptide's resistance to Cas9-RNP | GFP delivery score (FIGS. 3 and 4B, presence or absence of Cas9-RNP not stated): 3.6
2 | FSD10-15: 15-amino acid fragment of several longer shuttle agents, including FSD375, FSD10 and FSD210 (KWKLARAFARAIKKL; FSD10-15) | more resistant | GFP transduction efficiency (absence of Cas9-RNP): 21%; GFP transduction efficiency (presence of Cas9-RNP): 24%
3 | FSD422: FSD10-15 with flanking histidine residues in place of the glycine/serine-rich residues (HHHHHHKWKLARAFARAIKKLHHHHHH; FSD422) | did not maintain the same level of Cas9-RNP resistance | –
4 | FSD432: shuttle agent: FSD10-15 core, C-terminal glycine/serine-rich linker fused to a second cationic domain (KWKLARAFARAIKKLGGSGGGSQAKAQAKQAK; FSD432) | more sensitive to inhibition by Cas9-RNP | –
5 | FSD296: shuttle agent with N-terminal segment identical to FSD356; polar residues (e.g., Q) between the C-terminal positively-charged residues (KWKLLKLWSRLLKLWQQGGSGGGSQARAQARQAR; FSD296) | increased shuttle agent sensitivity to inhibition by Cas9-RNP | –
6 | FSD210: shuttle agent: FSD10-15 core, C-terminal glycine/serine-rich linker fused to a second cationic domain (KWKLARAFARAIKKLGGSGGGSRRLKAKRAKA; FSD210) | more sensitive to inhibition by Cas9-RNP | –
7 | FSD424: FSD10-15 with flanking glycine/serine-rich residues (KWKLARAFARAIKKLGGSGGGSGGSGGGS; FSD424) | retained the peptide's resistance to Cas9-RNP | GFP transduction activity relative to FSD10-15 (FIG. 4A): improving GFP transduction activity over FSD10-15
8 | FSD189: shuttle agent variant sharing the same core region as FSD174; higher C-terminal positive charge density (LLKIWSRLIKIWTQGRRLGRAQRAQRA; FSD189) | generally more sensitive to Cas9-RNP inhibition | –
9 | FSD241: shuttle agent: FSD10-15 core, C-terminal glycine/serine-rich linker fused to a second cationic domain (KWKLARAFARAIKKLGGSGGGSYARAAARQARA; FSD241) | more sensitive to inhibition by Cas9-RNP | –
10 | CM18-L2-PTD4: CM18-based shuttle agent with lower C-terminal positive charge density (KWKLFKKIGAVLKVLTTGGGSGGGSYARAAARQARA; CM18-L2-PTD4) | substantially more resistant to inhibition by Cas9-RNP | –
11 | FSD174: synthetic peptide shuttle agent having higher C-terminal positive charge density (LLKIWSRLIKIWTQGRRLGGSGGGSARAARQAR; FSD174) | particularly sensitive to the inhibitory effect of Cas9-RNP | GFP transduction efficiency (absence of Cas9-RNP): 66%; GFP transduction efficiency (presence of Cas9-RNP): 11%; resistance/sensitivity of GFP transduction to inhibition by Cas9-RNP (listed as FSD 174): generally more sensitive to Cas9-RNP inhibition
12 | His-CM18-TAT: CM18-based shuttle agent having high C-terminal positive charge density (HHHHHHKWKLFKKIGAVLKVLTTGYGRKKRRQRRR; His-CM18-TAT) | particularly marked sensitivities to inhibition by Cas9-RNP | –
13 | FSD268: synthetic peptide shuttle agent (KWKLLKLWSRLLKLWGGSGGGSQARAQARQAR; FSD268) | – | GFP transduction efficiency (absence of Cas9-RNP): 92%; GFP transduction efficiency (presence of Cas9-RNP): 29%
14 | FSD187: shuttle agent variant sharing the same core region as FSD174; higher C-terminal positive charge density (LLKIWSRLIKIWTQGRRLGARKPRKSRQ; FSD187) | generally more sensitive to Cas9-RNP inhibition | –
15 | FSD356: shuttle agent whose last three C-terminal residues are QAG (KWKLLKLWSRLLKLWGGSGGGSQAG; FSD356) | more resistant | GFP transduction efficiency (presence of Cas9-RNP): 51%
16 | FSD357: FSD356 with the last three C-terminal residues (QAG) replaced with three positively-charged arginine residues (RRR) (KWKLLKLWSRLLKLWGGSGGGSRRR; FSD357) | – | GFP transduction efficiency (presence of Cas9-RNP): 4%
17 | CM18-TAT: CM18-based shuttle agent having high C-terminal positive charge density (KWKLFKKIGAVLKVLTTGYGRKKRRQRRR; CM18-TAT) | particularly marked sensitivities to inhibition by Cas9-RNP | –
18 | FSD246: shuttle agent with N-terminal segment identical to FSD356; increased C-terminal positive charge density (KWKLLKLWSRLLKLWGGSGGGSYARAAARKAKRA; FSD246) | increased shuttle agent sensitivity to inhibition by Cas9-RNP | –
19 | His-CM18-Transportan: CM18-based shuttle agent with lower C-terminal positive charge density (HHHHHHKWKLFKKIGAVLKVLTTGGWTLNSAGYLLKINLKALAALAKKIL; His-CM18-Transportan) | substantially more resistant to inhibition by Cas9-RNP | –
20 | His-CM18-9Arg: CM18-based shuttle agent having high C-terminal positive charge density (HHHHHHKWKLFKKIGAVLKVLTTGRRRRRRRRR; His-CM18-9Arg) | particularly marked sensitivities to inhibition by Cas9-RNP | –
21 | FSD446: shuttle agent with N-terminal segment identical to FSD356 and a C-terminal non-cationic hydrophilic segment (KWKLLKLWSRLLKLWGGSGGGSHTSDQTN; FSD446) | – | GFP transduction efficiency (presence of Cas9-RNP): 34%
22 | FSD251: shuttle agent containing three negatively-charged glutamate (E) residues in the peptide's C-terminal region (KWKLLKLWSRLLKLWGGSGGGSAEAAEQAE; FSD251) | least sensitivity to Cas9-RNP inhibition | –
